# Columns and labels:
# [1] = Permeability of compound at pH 7.4 by PAMPA; assay type: ADME; settings: read-out: Peff
# [2] = Permeability of compound at pH 7.4 assessed as drug retention by PAMPA; assay type: ADME
# B-ALL [3] = test: Antiproliferative activity against mouse B-ALL cells expressing wild type BCR-ABL assessed as reduction in cell viability after 72 hrs by CellTiter-Glo assay; assay type: functional, cell-based
# B-ALL [4] = test: Antiproliferative activity against mouse B-ALL BCR-ABL double knockout cells assessed as reduction in cell viability after 72 hrs by CellTiter-Glo assay; assay type: functional, cell-based
# NALM-6 = test: Antiproliferative activity against human NALM6 assessed as reduction in cell viability after 72 hrs by CellTiter-Glo assay; assay type: functional, cell-based; settings: NALM-6, 72 h
# UoC-B1 = test: Antiproliferative activity against human UOCB1 assessed as reduction in cell viability after 72 hrs by CellTiter-Glo assay; assay type: functional, cell-based; settings: UoC-B1, 72 h
# KOPN-8 = test: Antiproliferative activity against human KOPN8 assessed as reduction in cell viability after 72 hrs by CellTiter-Glo assay; assay type: functional, cell-based; settings: KOPN-8, 72 h
# SUP-B15 = test: Antiproliferative activity against human SUP-B15 assessed as reduction in cell viability after 72 hrs by CellTiter-Glo assay; assay type: functional, cell-based; settings: SUP-B15, 72 h
# [5] = Therapeutic index, ratio of EC50 for human BJ cells to EC50 for mouse B-ALL cells expressing wild type BCR-ABL; assay type: toxicity; settings: human BJ cells versus mouse B-ALL cells expressing wild type BCR-ABL; read-out: Ratio EC50
# BJ = test: Antiproliferative activity against human BJ assessed as cell viability after 72 hrs by CellTiter-Glo assay; assay type: functional, cell-based
# [6] = Half life in mouse plasma; assay type: ADME, cell-free
# [7] = Half life in human plasma; assay type: ADME, cell-free
# MV4-11 = test: Antiproliferative activity against human MV411 assessed as reduction in cell viability after 72 hrs by CellTiter-Glo assay; assay type: functional, cell-based; settings: MV4-11, 72 h
# [8] = Apparent permeability of compound form apical to basolateral side in human Caco2 cells; assay type: ADME, cell-based; settings: Caco-2
# [9] = Apparent permeability of compound form basolateral to apical side in human Caco2 cells; assay type: ADME, cell-based; settings: Caco-2
# [10] = Efflux ratio of apparent permeability across basolateral to apical side over apical to basolateral side in human Caco2 cells; assay type: ADME, cell-based; settings: Caco-2
# K562 = test: Antiproliferative activity against human K562 assessed as reduction in cell viability after 72 hrs by CellTiter-Glo assay; assay type: functional, cell-based; settings: K562, 72 h
half-life [6],half-life [7],EC50 (MV4-11),Papp A→B [8],Papp B→A [9],efflux ratio [10],EC50 (K562),Structure (SMILES),Papp [1],permeability [2],EC50 (B-ALL [3]),EC50 (B-ALL [4]),EC50 (NALM-6),EC50 (UoC-B1),EC50 (KOPN-8),EC50 (SUP-B15),selectivity ratio [5],EC50 (BJ)
,,,,,,,CCCSc1ccc2nc(NC(=O)OC)[nH]c2c1 [ALBENDAZOLE],284 ×10⁻⁶ cm/s,44.1%,,,,,,,,
,,,,,,,CS(=O)(=O)c1ccc(-c2cccc3c2OC(CNC(=O)c2ccccc2F)C3)cc1 (stereo unspecified),,,8.88 µM,36.4 µM,1.75 µM,> 43.3 µM,> 43.3 µM,> 43.3 µM,> 5,> 43.3 µM
2.11 h,0.42 h,,,,,,CC1CC(OC(=O)C(O)c2ccccc2)CC(C)(C)N1C (stereo unspecified) [EUCATROPINE],,,,,,,,,,
,,> 10 µM,,,,,COc1ccc(O)c(C(=O)NCCc2ccc(-c3cnc(C)s3)cc2)c1,,,9.49 µM,22.7 µM,1.01 µM,24.7 µM,36.3 µM,> 43.3 µM,,8.25 µM
,,,52.4 ×10⁻⁶ cm/s,41.8 ×10⁻⁶ cm/s,0.8,,NC(=O)N1c2ccccc2C=Cc2ccccc21 [CARBAMAZEPINE],266 ×10⁻⁶ cm/s,21.9%,,,,,,,,
,,0.85 µM,,,,1.07 µM,CCN(CC)c1ccc(-n2cnnc2-c2cccc(O)c2)cc1,,,2.03 µM,> 49.1 µM,1.06 µM,1.78 µM,> 49.1 µM,> 49.1 µM,> 24,> 49.2 µM
,,,,,,,NC(=O)c1sccc1Nc1[nH]c(Nc2cccc(OC(F)(F)F)c2)nc2nncc1-2,,,3.14 µM,14.6 µM,0.005 µM,12.9 µM,13.1 µM,> 43.3 µM,5,17 µM
,,13.7 µM,,,,7.33 µM,c1ccc2[nH]c(-c3ccc(-c4nc5ccccc5[nH]4)nc3)nc2c1,,,7.89 µM,34.2 µM,2.47 µM,> 43.3 µM,1.78 µM,1.81 µM,> 5,> 43.3 µM
,,,,,,,COc1ccc(O)c(-c2cc(-c3cc(Cl)ccc3O)[nH]n2)c1,,,4.94 µM,11.2 µM,0.005 µM,13.6 µM,15.8 µM,> 43.3 µM,5,25.1 µM

# From ChEMBL document CHEMBL4422630, “Identification of substituted 5-membered heterocyclic compounds as potential anti-leukemic agents” (Eur J Med Chem, 2019)
